Tests used:
bedstraw = assay: Test B pre/postemergence bedstraw; format: in vivo, Galium aparine; conditions: Postemergence
Summary of the method: (§1)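 Herbicidal effect was estimated by eye on a ten-point control scale after plants spent twelve to sixteen days in a greenhouse following soil or foliar treatment. Foliar sprays targeted plants at one to four leaves; all doses were formulated in a non-phytotoxic solvent with surfactant.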

blackgrass = assay: Test B pre/postemergence blackgrass; format: in vivo, Alopecurus myosuroides
Summary of the method: as §1

surinam grass = assay: Test B pre/postemergence surinam grass; format: in vivo, Brachiaria decumbens
Summary of the method: as §1

cocklebur = assay: Test B pre/postemergence cocklebur; format: in vivo, Xanthium strumarium
Summary of the method: as §1

corn = assay: Test B pre/postemergence corn; format: in vivo, Zea mays
Summary of the method: as §1

crabgrass = assay: Test B pre/postemergence crabgrass; format: in vivo, Digitaria sanguinalis
Summary of the method: as §1

giant foxtail = assay: Test B pre/postemergence giant foxtail; format: in vivo, Setaria faberii
Summary of the method: as §1

morningglory = assay: Test B pre/postemergence morningglory; format: in vivo, Ipomoea hederacea
Summary of the method: as §1

pigweed = assay: Test B pre/postemergence pigweed; format: in vivo, Amaranthus retroflexus
Summary of the method: as §1

rape = assay: Test B pre/postemergence rape; format: in vivo, Brassica napus
Summary of the method: as §1

soybean = assay: Test B pre/postemergence soybean; format: in vivo, Glycine max
Summary of the method: as §1

sugar beet = assay: Test B pre/postemergence sugar beet; format: in vivo, Beta vulgaris
Summary of the method: as §1

velvetleaf = assay: Test B pre/postemergence velvetleaf; format: in vivo, Abutilon theophrasti
Summary of the method: as §1

wheat = assay: Test B pre/postemergence wheat; format: in vivo, Triticum aestivum
Summary of the method: as §1

wild oat = assay: Test B pre/postemergence wild oat; format: in vivo, Avena fatua
Summary of the method: as §1

purple nutsedge = assay: Test B pre/postemergence purple nutsedge; format: in vivo, Cyperus rotundus
Summary of the method: as §1

rice = assay: Test B flood test rice; format: in vivo, Oryza sativa
Summary of the method: (§2)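 Each value is a visual injury score relative to controls, with 10 meaning complete control and 0 no effect. Evaluation took place twelve to sixteen days after the 2-leaf-stage plants were treated and kept in the greenhouse.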

smallflower flatsedge = assay: Test B flood test smallflower flatsedge; format: in vivo, Cyperus difformis
Summary of the method: as §2

duck salad = assay: Test B flood test duck salad; format: in vivo, Heteranthera limosa
Summary of the method: as §2

bamyardgrass = assay: Test B flood test barnyardgrass; format: in vivo, Echinochloa crus-galli
Summary of the method: as §2

[1] = Postemergence, Rate 250 g/ha, scale 0 to 10, 0 is no effect, 10 is complete control
[2] = Postemergence, Rate 500 g/ha, scale of 0 to 10 where 0 is no effect and 10 is complete control
[3] = Preemergence, Rate 62 g/ha, scale 0 to 10 (0 no effect, 10 complete control)
[4] = Preemergence, Rate 125 g/ha, scale of 0 to 10 where 0 is no effect and 10 is complete control
[5] = Preemergence, Rate 250 g/ha, scale of 0 to 10 where 0 is no effect and 10 is complete control
[6] = Preemergence, Rate 500 g/ha, scale 0 to 10, 0 is no effect, 10 is complete control
[7] = Postemergence, Rate 125 g/ha, scale 0 to 10, 0 is no effect, 10 is complete control
[8] = Rate 62 g/ha, Postemergence, scale of 0 to 10 where 0 is no effect and 10 is complete control
[9] = Preemergence, Rate 250 g/ha, scale 0 to 10, 0 is no effect, 10 is complete control
[10] = Rate 62 g/ha, flood test species, Pre-emergence, visual evaluation after twelve to sixteen days
[11] = Rate 125 g/ha, under heading Pre-emergence, flood test species, visual evaluation after twelve to sixteen days
[12] = Rate 250 g/ha, Pre-emergence, flood-test species, scale 0 to 10, 0 is no effect, 10 is complete control
[13] = Rate 500 g/ha, Pre-emergence, flood test species, scale 0 to 10 (0 no effect, 10 complete control)

In the case of CC(C)N(C(=O)n1oc(=O)n(C(C)CCl)c1=O)c1ccccc1 (centres unmarked) [Compound 411], the “Plant response rating, Bedstraw” value (bedstraw; Rate 250 g/ha, scale 0 to 10, 0 is no effect, 10 is complete control) is reported as 7, the “Bedstraw plant response rating” value (bedstraw; Rate 500 g/ha, scale of 0 to 10 where 0 is no effect and 10 is complete control) is reported as 8 and the “Plant response rating, Blackgrass” value (blackgrass; [1]) is reported as 9. For the same molecule, the “Blackgrass plant response rating” value (blackgrass; [2]) was 9, the “Plant response rating, Blackgrass” value (blackgrass; [3]) was 6 and the “Plant response rating, Blackgrass” value (blackgrass; [4]) was 7. For the same molecule, the “Blackgrass plant response rating” value (blackgrass; [5]) was 9, the “Blackgrass plant response rating” value (blackgrass; [6]) was 10 and the “Plant response rating, B. signalgrass” value (surinam grass; [7]) was 3. For the same molecule, the “Plant response rating, B. signalgrass” value (surinam grass; [1]) was 5, the “B. signalgrass plant response rating” value (surinam grass; [2]) was 9 and the “Plant response rating, B. signalgrass” value (surinam grass; [3]) was 0. For the same molecule, the “Plant response rating, B. signalgrass” value (surinam grass; [4]) was 3, the “B. signalgrass plant response rating” value (surinam grass; [5]) was 7 and the “B. signalgrass plant response rating” value (surinam grass; Preemergence, Rate 500 g/ha, scale of 0 to 10 where 0 is no effect and 10 is complete control) was 10. For the same molecule, the “B. signalgrass plant response rating” value (surinam grass; [8]) was 0, the “Plant response rating, Cocklebur” value (cocklebur; [7]) was 1 and the “Plant response rating, Cocklebur” value (cocklebur; [1]) was 3. For the same molecule, the “Cocklebur plant response rating” value (cocklebur; [2]) was 3, the “Plant response rating, Cocklebur” value (cocklebur; [3]) was 0 and the “Plant response rating, Cocklebur” value (cocklebur; [4]) was 0. For the same molecule, the “Cocklebur plant response rating” value (cocklebur; [9]) was 0, the “Cocklebur plant response rating” value (cocklebur; [6]) was 0 and the “Cocklebur plant response rating” value (cocklebur; [8]) was 1. For the same molecule, the “Plant response rating, Corn” value (corn; [7]) was 0, the “Plant response rating, Corn” value (corn; [1]) was 0 and the “Corn plant response rating” value (corn; [2]) was 4. For the same molecule, the “Plant response rating, Corn” value (corn; [3]) was 0, the “Plant response rating, Corn” value (corn; [4]) was 2 and the “Corn plant response rating” value (corn; [9]) was 8. For the same molecule, the “Corn plant response rating” value (corn; [6]) was 9, the “Corn plant response rating” value (corn; [8]) was 0 and the “Plant response rating, Crabgrass” value (crabgrass; [7]) was 4. For the same molecule, the “Plant response rating, Crabgrass” value (crabgrass; [1]) was 8, the “Crabgrass plant response rating” value (crabgrass; [2]) was 8 and the “Plant response rating, Crabgrass” value (crabgrass; [3]) was 9. For the same molecule, the “Plant response rating, Crabgrass” value (crabgrass; [4]) was 10, the “Crabgrass plant response rating” value (crabgrass; [9]) was 10 and the “Crabgrass plant response rating” value (crabgrass; [6]) was 10. For the same molecule, the “Crabgrass plant response rating” value (crabgrass; [8]) was 4, the “Plant response rating, Giant foxtail” value (giant foxtail; [7]) was 9 and the “Plant response rating, Giant foxtail” value (giant foxtail; [1]) was 9. The “Giant foxtail plant response rating” value (giant foxtail; [2]) was 9, the “Plant response rating, Giant foxtail” value (giant foxtail; [3]) was 10 and the “Plant response rating, Giant foxtail” value (giant foxtail; [4]) was 10. For the same molecule, the “Giant foxtail plant response rating” value (giant foxtail; [9]) was 10, the “Giant foxtail plant response rating” value (giant foxtail; [6]) was 10 and the “Giant foxtail plant response rating” value (giant foxtail; [8]) was 6. For the same molecule, the “Plant response rating, Morningglory” value (morningglory; [1]) was 6, the “Morningglory plant response rating” value (morningglory; [2]) was 6 and the “Plant response rating, Morningglory” value (morningglory; [3]) was 0. The “Plant response rating, Morningglory” value (morningglory; [4]) was 1, the “Morningglory plant response rating” value (morningglory; [9]) was 2 and the “Morningglory plant response rating” value (morningglory; [6]) was 4. For the same molecule, the “Plant response rating, Redroot pigweed” value (pigweed; [1]) was 7, the “Redroot pigweed plant response rating” value (pigweed; [2]) was 9 and the “Plant response rating, Redroot pigweed” value (pigweed; [3]) was 3. For the same molecule, the “Plant response rating, Redroot pigweed” value (pigweed; [4]) was 8, the “Redroot pigweed plant response rating” value (pigweed; [9]) was 10 and the “Redroot pigweed plant response rating” value (pigweed; [6]) was 10. The “Plant response rating, Rape” value (rape; [1]) was 7, the “Rape plant response rating” value (rape; [2]) was 8 and the “Plant response rating, Rape” value (rape; [3]) was 2. For the same molecule, the “Plant response rating, Rape” value (rape; [4]) was 8, the “Rape plant response rating” value (rape; [9]) was 9 and the “Rape plant response rating” value (rape; [6]) was 10. For the same molecule, the “Plant response rating, Soybean” value (soybean; [1]) was 5, the “Soybean plant response rating” value (soybean; [2]) was 7 and the “Plant response rating, Soybean” value (soybean; [3]) was 0. For the same molecule, the “Plant response rating, Soybean” value (soybean; [4]) was 0, the “Soybean plant response rating” value (soybean; [9]) was 0 and the “Soybean plant response rating” value (soybean; [6]) was 1. For the same molecule, the “Plant response rating, Sugarbeets” value (sugar beet; [1]) was 4, the “Sugarbeets plant response rating” value (sugar beet; [2]) was 7 and the “Plant response rating, Sugarbeets” value (sugar beet; [3]) was 5. For the same molecule, the “Plant response rating, Sugarbeets” value (sugar beet; [4]) was 8, the “Sugarbeets plant response rating” value (sugar beet; [9]) was 8 and the “Sugarbeets plant response rating” value (sugar beet; [6]) was 8. For the same molecule, the “Plant response rating, Velvetleaf” value (velvetleaf; [1]) was 4, the “Velvetleaf plant response rating” value (velvetleaf; [2]) was 6 and the “Plant response rating, Velvetleaf” value (velvetleaf; [3]) was 2. For the same molecule, the “Plant response rating, Velvetleaf” value (velvetleaf; [4]) was 5, the “Velvetleaf plant response rating” value (velvetleaf; [9]) was 6 and the “Velvetleaf plant response rating” value (velvetleaf; [6]) was 8. The “Wheat plant response rating” value (wheat; [2]) was 8, the “Plant response rating, Wheat” value (wheat; [3]) was 0 and the “Plant response rating, Wheat” value (wheat; [4]) was 4. The “Wheat plant response rating” value (wheat; [9]) was 7, the “Wheat plant response rating” value (wheat; [6]) was 10 and the “Wild oats plant response rating” value (wild oat; [2]) was 9. For the same molecule, the “Plant response rating, Wild oats” value (wild oat; [3]) was 0, the “Plant response rating, Wild oats” value (wild oat; [4]) was 5 and the “Wild oats plant response rating” value (wild oat; [9]) was 8. The “Wild oats plant response rating” value (wild oat; [6]) was 10, the “Plant response rating, Nutsedge” value (purple nutsedge; [1]) was 0 and the “Nutsedge plant response rating” value (purple nutsedge; [2]) was 0. The “Plant response rating, Nutsedge” value (purple nutsedge; [3]) was 0, the “Plant response rating, Nutsedge” value (purple nutsedge; [4]) was 0 and the “Nutsedge plant response rating” value (purple nutsedge; [9]) was 0. The “Nutsedge plant response rating” value (purple nutsedge; [6]) was 2, the “Plant response rating, Rice (0 to 10 scale, 0 is no effect, 10 is complete control)” value (rice; [10]) was 0 and the “Rice plant response rating (0 to 10 scale, 0 is no effect, 10 is complete control)” value (rice; [11]) was 0. The “Rice plant response rating” value (rice; [12]) was 0, the “Rice plant response rating” value (rice; [13]) was 0 and the “Plant response rating, S. Flatsedge (0 to 10 scale, 0 is no effect, 10 is complete control)” value (smallflower flatsedge; [10]) was 0. The “S. Flatsedge plant response rating (0 to 10 scale, 0 is no effect, 10 is complete control)” value (smallflower flatsedge; [11]) was 0, the “S. Flatsedge plant response rating” value (smallflower flatsedge; [12]) was 9 and the “S. Flatsedge plant response rating” value (smallflower flatsedge; [13]) was 9. For the same molecule, the “Plant response rating, Ducksalad (0 to 10 scale, 0 is no effect, 10 is complete control)” value (duck salad; [10]) was 0, the “Ducksalad plant response rating (0 to 10 scale, 0 is no effect, 10 is complete control)” value (duck salad; [11]) was 0 and the “Ducksalad plant response rating” value (duck salad; [12]) was 2. The “Ducksalad plant response rating” value (duck salad; [13]) was 2, the “Plant response rating, Barnyardgrass (0 to 10 scale, 0 is no effect, 10 is complete control)” value (bamyardgrass; [10]) was 0 and the “Barnyardgrass plant response rating (0 to 10 scale, 0 is no effect, 10 is complete control)” value (bamyardgrass; [11]) was 8. For the same molecule, the “Barnyardgrass plant response rating” value (bamyardgrass; [12]) was 9 and the “Barnyardgrass plant response rating” value (bamyardgrass; [13]) was 9.
